Values after ≈ are worked out from the molar mass of the structure shown. Read-outs that look alike come from different tables or passages of the source. Values belong to the molecule of their own block, whether it stands above or below them.
Columns and labels:
[1] = cited from earlier work
[2] = Remote drug loading into PEG-coated liposomes; format: physicochemical; conditions: for % Drug Loading / Drug Conc. at Lipid Conc. of 36 mg/ml / Internal Liposome Drug Conc.: Drug:Lipid Ratio (mg/ml/mM) 2.5:50 (lysine-cipro), 5:50 (glycine-cipro)
Procedure: The chloroform was removed using a flash evaporator under reduced pressure until dryness. To the thin lipid film on the surface of the flask was added 15 ml of a solution of 250 mM ammonium sulfate, pH 5.5 and the lipids were dispersed in the solution by vigorous shaking for approximately 30 minutes at 60° C. The multilamellar vesicles obtained were extruded 6 times through a 0.4 μm pore-size Nucleopore polycarbonate filter, 6 times through a 0.1 μm polycarbonate filter and 3 times through a 0.05 μm polycarbonate filter using a stainless steel extrusion cell under a pressure of 200-400 psig. The extrusion process was carried out at 60° C. […] The liposomes were then dialyzed overnight against 4 liters 10% sucrose to remove external ammonium sulfate at 4° C.
The mixtures were incubated at 60° C. for 30 minutes. After incubation, the mixtures were immediately cooled in an ice bath. Aliquot samples were taken and the percent of drug loading was determined by using a Sephadex G-50 column (1.0×19 cm).

S. aureus = assay: Minimum inhibitory concentration, broth microdilution (NCCLS M7-A); format: cell-based; conditions: Staphylococcus aureus, inoculum 5×10^5 CFU/ml
Procedure: (§1) As described above, glycinyl-ciprofloxacin was prepared as set forth in Example 2A-2B and tested for antimicrobial activity in vitro, as described in Example 2C. The minimum inhibitory concentration of the drugs against the bacterial strains S. pyrogenes, E. faecalis, S. aureus, E. coli and P. aeruginosa were determined.
(§2) Minimum inhibitory concentrations were determined by a broth microdilution technique following the National Committee for Clinical Laboratory Standards guidelines (NCCLS document M7-A, National Committee for Laboratory Standards, Villanova, Pa., 1994 Approved Standard for "Methods for dilution antimicrobial susceptibility tests for bacteria that grow aerobically") with a starting inoculum of 5×10^5 CFU/ml.

E. faecalis = assay: as above; format: cell-based; conditions: Enterococcus faecalis, read-out: Minimum Inhibitory Concentration
Procedure: (§3) The minimum inhibitory concentration of the drugs against the bacterial strains S. pyrogenes, E. faecalis, S. aureus, E. coli and P. aeruginosa were determined.

P. aeruginosa = assay: as above; format: cell-based; conditions: Pseudomonas aeruginosa, read-out: Minimum Inhibitory Concentration
Procedure: as §3

S. pyrogenes = assay: as above; format: cell-based; conditions: read-out: Minimum Inhibitory Concentration
Procedure: as §3

[3] = test system: S. pyrogenes, E. faecalis, S. aureus, E. coli and P. aeruginosa; assay: Antimicrobial activity of conjugate versus ciprofloxacin (MIC, summary in words); format: cell-based; conditions: compared with ciprofloxacin, MICs of Table 1
Procedure: as §3

E. coli = assay: Minimum inhibitory concentration, broth microdilution (NCCLS M7-A); format: cell-based; conditions: Escherichia coli, inoculum 5×10^5 CFU/ml
Procedure: as §1, §2

[4] = amino group (NH3) of amino acid, Lehninger
[5] = amino acid used to modify ciprofloxacin

Molecule: C[C@H](N)C(=O)O [alanine]
pKa [1, 4]: 9.7

Molecule: N=C(N)NCCC[C@H](N)C(=O)O [arginine]
pKa [1, 4]: 9.04

Molecule: O=C(O)c1cn(C2CC2)c2cc(N3CCNCC3)c(F)cc2c1=O [ciprofloxacin, 1-cyclopropyl-6-fluoro-1,4-dihydro-4-oxo-7-(1-piperazinyl)-3-quinoline carboxylic acid]
percent of drug loading ([2]; lipid/drug ratio 2): 49%
percent of drug loading ([2]; lipid/drug ratio 4): 75%
percent of drug loading ([2]; lipid/drug ratio 8): 90%
ciprofloxacin loading ([2]; lipid/drug ratio 8, as stated in leakage test): 75%
percent of drug loading ([2]; lipid/drug ratio 16): 91%
MIC (S. aureus): 1 mg/L (≈ 3.02 µM)
MIC (E. faecalis): 1 mg/L (≈ 3.02 µM)
MIC (P. aeruginosa): < 0.5 mg/L
MIC (S. pyrogenes): < 0.5 mg/L

Molecule: NCC(=O)O [glycine]
pKa [1, 4]: 9.6

Molecule: NCC(=O)N1CCN(c2cc3c(cc2F)c(=O)c(C(=O)O)cn3C2CC2)CC1 [glycinyl-ciprofloxacin]
potency relative to ciprofloxacin [3]: some loss of potency
% Drug Loading [2]: 75%
Drug Conc. at Lipid Conc. of 36 mg/ml [2]: 5
Internal Liposome Drug Conc. [2]: 37.5 mg/mL
MIC (E. coli): 8 mg/L (≈ 20.6 µM)
MIC (S. aureus): 32 mg/L (≈ 82.4 µM)
MIC (E. faecalis; E. faecalis, inoculum 5×10^5 CFU/ml): 32 mg/L (≈ 82.4 µM)
MIC (P. aeruginosa; P. aeruginosa, inoculum 5×10^5 CFU/ml): > 512 mg/L
MIC (S. pyrogenes; S. pyrogenes, inoculum 5×10^5 CFU/ml): 4 mg/L (≈ 10.3 µM)

Molecule: NCCCC[C@H](N)C(=O)O [lysine]
pKa [1, 4]: 8.95

% Drug Loading [2]: 73%
Drug Conc. at Lipid Conc. of 36 mg/ml [2]: 1.825
Internal Liposome Drug Conc. [2]: 13.1 mg/mL
Molecule: NCCCC[C@H](N)C(=O)N1CCN(c2cc3c(cc2F)c(=O)c(C(=O)O)cn3C2CC2)CC1 [lysinyl-ciprofloxacin]

Molecule: α-aminocapric acid
pKa [1, 5]: 9.6

Molecule: ε-aminocapric acid
pKa [1, 5]: 10.5

From patent US5972379A, “Liposome composition and method for administering a quinolone” (Sequus Pharmaceuticals, Inc., priority 1998, dated 1999)
